Experimental data: patent US10588865B2, “Tamper resistant oral opioid agonist formulations” (Purdue Pharma L.P., priority 2000, dated 2020)
Where a name gives a salt, the structure may show the parent alone.

Legend:
[1] = test system: normal subjects; assay: Example 19: effect of naltrexone on subjective and physiological effects of 15 mg hydrocodone; format: in vivo
[2] = test system: morphine-dependent subjects; assay: Example 17: precipitated withdrawal after hydrocodone immediate release tablets with naltrexone
[3] = test system: methadone-dependent subjects; conditions: immediate-release naltrexone, interim analysis
[4] = test system: man; conditions: cited from earlier work
[5] = in comparison to a 15 mg dose of hydrocodone
Excerpt: In certain preferred embodiments, the opioid agonist is oxycodone or hydrocodone.

[6] = cited from earlier work
[7] = after oral doses; cited from earlier work
[8] = suggested by clinical data of examples 17, 18 and 19

Which “dose able to antagonize several centrally mediated opioid effects of hydrocodone, including pupillary miosis” value ([1]; 15 mg hydrocodone) does the source give for `O=C1CC[C@@]2(O)[C@H]3Cc4ccc(O)c5c4[C@@]2(CCN3CC2CC2)[C@H]1O5` [naltrexone] here?
Its value is 0.4 mg.

What about the “bio-available, immediate-release dose that will not affect analgesia to any significant degree” value [1, 8] of the same molecule?
The value was 0.125 mg.

And the “prompt release of bio-available drug that will affect analgesia” value [1, 8]?
Its value is at least 0.25 mg.

And the “liking of the agonist” value ([2]; 1 mg naltrexone dose with hydrocodone immediate release tablets, opioid-dependent subjects)?
The value was “less liking of the agonist relative to the combination with placebo”.

And the withdrawal signs ([2]; subjects in example 17 receiving the 0.25-mg)?
The withdrawal signs was “absence of withdrawal signs”.

What about the “dose able to elicit the signs and symptoms of withdrawal” value [3] of the same molecule?
Its value is 0.5 mg.

Which “block of the effect of 25 mg of heroin” value ([4]; One mg intravenously) does the source give for `C=CCN1CC[C@]23c4c5ccc(O)c4O[C@H]2C(=O)CC[C@@]3(O)[C@H]1C5` [naloxone] here?
The value was “completely block”.

What about the “dose that prevents or promptly reverses the effects of morphine-like opioid agonist” value ([4]; given intramuscularly or intravenously in man) of the same molecule?
The value was 0.4 to 0.8 mg.

What about the “potency after oral administration compared with parenteral administration” value ([4]; oral, first passage through the liver) of the same molecule?
Its value is “significantly lower potency”.

Which “Calculated Dose (equianalgesic dose)” value [5] does the source give for `CCC(=O)C(CC(C)N(C)C)(c1ccccc1)c1ccccc1` (stereo not drawn) [Methadone] here?
Its value is 9.0 mg.

With `CN1CC[C@]23CCCC[C@H]2[C@H]1Cc1ccc(O)cc13` [Levorphanol] as the molecule, how does the “Calculated Dose (equianalgesic dose)” value [5] read?
Its value is 1.8 mg.

For `COc1ccc2c3c1O[C@H]1[C@@H](O)C=C[C@H]4[C@@H](C2)N(C)CC[C@@]341` [Codeine], which “Calculated Dose (equianalgesic dose)” value [5] is on record?
The value was 90.0 mg.

With `COc1ccc2c3c1OC1C(=O)CC[C@H]4[C@@H](C2)N(C)CC[C@]314` (stereo partly drawn) [Hydrocodone, 4,5-epoxy-3-methoxy-17-methylmorphinan-6-one] as the molecule, how does the “Calculated Dose (equianalgesic dose)” value [5] read?
Its value is 15.0 mg.

Which “water solubility” value [6] does the source give for `O=C1CC[C@@]2(O)[C@H]3Cc4ccc(O)c5c4[C@@]2(CCN3CC2CC2)[C@H]1O5` [hydrochloride salt of naltrexone, Naltrexone HCl] here?
Its value is “very water-soluble”.

And the solubility in water ([6]; hydrochloride salt)?
Its solubility in water is “about 100 mg/cc”.

With `C[C@H]1[C@H]2Cc3ccc(O)cc3[C@]1(C)CCN2CC1CC1` [cyclazocine] as the molecule, how does the duration of action [7] read?
Its duration of action is about 24 h.

With `COc1ccc2c3c1O[C@H]1C(=O)CC[C@@]4(O)[C@@H](C2)N(C)CC[C@]314` [Oxycodone, 4,5-expoxy-14-hydroxy-3-methoxy-17-methylmorphinan-6-one] as the molecule, how does the “Calculated Dose (equianalgesic dose)” value [5] read?
Its value is 13.5 mg.

For Meperidine, which “Calculated Dose (equianalgesic dose)” value [5] is on record?
Its value is 135.0 mg.
